Reference: patent publication US20120029187A1, “HALOALKYLSULFONANILIDE DERIVATIVE” (Nissan Chemical Industries, Ltd., priority 2009, published 2012)

Tests used:
Type in all cases: in vivo
[1] = test system: large crabgrass; test: Test Example 3: herbicidal effects in soil treatment; settings: dose 3.2 g/a
How it was run: (§1)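 Seeds were sown in sterilized diluvial soil and covered with about 1.5 cm of soil. Compounds, formulated as emulsifiable concentrates and diluted with water, were sprayed evenly over the soil surface at set doses in g/a. Herbicidal effect was scored on a rating scale three weeks later.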

[2] = test system: redroot pigweed; test: as above; settings: dose 3.2 g/a
How it was run: as §1

[3] = test system: water foxtail; test: as above; settings: dose 3.2 g/a
How it was run: as §1

[4] = test system: beadstraw; test: as above; settings: dose 3.2 g/a
How it was run: as §1

[5] = test system: common ragweed; test: as above; settings: dose 3.2 g/a
How it was run: as §1

[6] = test system: velvetleaf; test: as above; settings: dose 3.2 g/a
How it was run: as §1

[7] = test system: Italian ryegrass; test: as above; settings: dose 3.2 g/a
How it was run: as §1

[8] = test system: common lambsquater; test: as above; settings: dose 3.2 g/a
How it was run: as §1

[9] = test system: giant foxtail; test: as above; settings: dose 3.2 g/a
How it was run: as §1

[10] = test system: common chickweed; test: as above; settings: dose 3.2 g/a
How it was run: as §1

[11] = test system: barnyardgrass; test: as above; settings: dose 3.2 g/a
How it was run: as §1

[12] = test system: posumbu knotweed; test: as above; settings: dose 3.2 g/a
How it was run: as §1

[13] = test system: ducksalad; test: Test Example 1: herbicidal effects in preemergence treatment under submerged conditions; settings: dose 2.52 g/a
How it was run: (§2)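 Weed seeds and 2.5-leaf rice seedlings shared each flooded cup of alluvial soil. Dosing, expressed as g per are, was by pouring water-diluted emulsifiable concentrate onto the surface on sowing day. Mortality was graded 0 to 5 after three weeks' growth.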

[14] = test system: bulrush; test: as above; settings: dose 2.52 g/a
How it was run: as §2

[15] = test system: barnyardgrass; test: as above; settings: dose 2.52 g/a
How it was run: as §2

[16] = test system: large crabgrass; test: Test Example 4: herbicidal effect in foliage treatment; settings: dose 3.2 g/a, three weeks after application
How it was run: (§3)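 A uniform foliar spray of emulsifiable concentrate, diluted with water to give the stated g/a dose, was applied to plants raised for 14 days from seed in sterilized diluvial soil at 25 to 30° C. Herbicidal effects were scored three weeks later.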

[17] = test system: redroot pigweed; test: as above; settings: dose 3.2 g/a, three weeks after application
How it was run: as §3

[18] = test system: water foxtail; test: as above; settings: dose 3.2 g/a, three weeks after application
How it was run: as §3

[19] = test system: beadstraw; test: as above; settings: dose 3.2 g/a, three weeks after application
How it was run: as §3

[20] = test system: common ragweed; test: as above; settings: dose 3.2 g/a, three weeks after application
How it was run: as §3

[21] = test system: velvetleaf; test: as above; settings: dose 3.2 g/a, three weeks after application
How it was run: as §3

[22] = test system: Italian ryegrass; test: as above; settings: dose 3.2 g/a, three weeks after application
How it was run: as §3

[23] = test system: common lambsquater; test: as above; settings: dose 3.2 g/a, three weeks after application
How it was run: as §3

[24] = test system: giant foxtail; test: as above; settings: dose 3.2 g/a, three weeks after application
How it was run: as §3

[25] = test system: common chickweed; test: as above; settings: dose 3.2 g/a, three weeks after application
How it was run: as §3

[26] = test system: barnyardgrass; test: as above; settings: dose 3.2 g/a, three weeks after application
How it was run: as §3

[27] = test system: posumbu knotweed; test: as above; settings: dose 3.2 g/a, three weeks after application
How it was run: as §3

[28] = test system: ducksalad; test: Test Example 2: herbicidal effects during the vegetation period under submerged conditions; settings: treatment during the vegetation period under submerged conditions; dose 2.52 g/a
How it was run: (§4)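 Barnyardgrass, bulrush and ducksalad were co-sown in alluvial soil flooded to 4 cm and grown in a greenhouse at 25 to 30° C. At the 1- or 2-leaf stage, water-diluted emulsifiable concentrates went onto the water surface at set doses (g/a). Herbicidal effect was scored three weeks later on a graded scale.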

[29] = test system: bulrush; test: as above; settings: treatment during the vegetation period under submerged conditions; dose 2.52 g/a
How it was run: as §4

[30] = test system: barnyardgrass; test: as above; settings: treatment during the vegetation period under submerged conditions; dose 2.52 g/a
How it was run: as §4

[31] = test system: transplanted rice; test: Test Example 1: preemergence treatment under submerged conditions, effect on crop; settings: dose 2.52 g/a
How it was run: as §2

Compound	D: large crabgrass, herbicidal effect (evaluation scale 0-5) [1]	K: redroot pigweed, herbicidal effect (evaluation scale 0-5) [2]	G: water foxtail, herbicidal effect (evaluation scale 0-5) [3]	O: beadstraw, herbicidal effect (evaluation scale 0-5) [4]	J: common ragweed, herbicidal effect (evaluation scale 0-5) [5]	I: velvetleaf, herbicidal effect (evaluation scale 0-5) [6]	H: Italian ryegrass, herbicidal effect (evaluation scale 0-5) [7]	L: common lambsquater, herbicidal effect (evaluation scale 0-5) [8]	E: giant foxtail, herbicidal effect (evaluation scale 0-5) [9]	N: common chickweed, herbicidal effect (evaluation scale 0-5) [10]	A: barnyardgrass, herbicidal effect (evaluation scale 0-5) [11]	M: posumbu knotweed, herbicidal effect (evaluation scale 0-5) [12]	C: ducksalad, herbicidal effect (evaluation scale 0-5) [13]	B: bulrush, herbicidal effect (evaluation scale 0-5) [14]	A: barnyardgrass, herbicidal effect (evaluation scale 0-5) [15]	D: large crabgrass, herbicidal effect [16]	K: redroot pigweed, herbicidal effect [17]	G: water foxtail, herbicidal effect [18]	O: beadstraw, herbicidal effect [19]	J: common ragweed, herbicidal effect [20]	also measured
CCC(=O)N(c1ccccc1CN1COC2(CCC2)CC1=O)S(=O)(=O)C(F)(F)F [II-62]	5 (mortality of 90% or above (nearly complete death))	4 (mortality of at least 70% and less than 90%)	5 (mortality of 90% or above (nearly complete death))	4 (mortality of at least 70% and less than 90%)	4 (mortality of at least 70% and less than 90%)	5 (mortality of 90% or above (nearly complete death))	5 (mortality of 90% or above (nearly complete death))	4 (mortality of at least 70% and less than 90%)	5 (mortality of 90% or above (nearly complete death))	5 (mortality of 90% or above (nearly complete death))	5 (mortality of 90% or above (nearly complete death))	5 (mortality of 90% or above (nearly complete death))	5 (mortality of 90% or above (nearly complete death))	5 (mortality of 90% or above (nearly complete death))	5 (mortality of 90% or above (nearly complete death))	5 (mortality of 90% or above (nearly complete death))	3 (mortality of at least 40% and less than 70%)	5 (mortality of 90% or above (nearly complete death))	4 (mortality of at least 70% and less than 90%)	4 (mortality of at least 70% and less than 90%)	I: velvetleaf, herbicidal effect [21]: 5 (mortality of 90% or above (nearly complete death)); H: Italian ryegrass, herbicidal effect [22]: 4 (mortality of at least 70% and less than 90%); L: common lambsquater, herbicidal effect [23]: 4 (mortality of at least 70% and less than 90%); E: giant foxtail, herbicidal effect [24]: 5 (mortality of 90% or above (nearly complete death)); N: common chickweed, herbicidal effect [25]: 4 (mortality of at least 70% and less than 90%); A: barnyardgrass, herbicidal effect [26]: 5 (mortality of 90% or above (nearly complete death)); M: posumbu knotweed, herbicidal effect [27]: 4 (mortality of at least 70% and less than 90%); C: ducksalad, herbicidal effect (evaluation scale 0-5) [28]: 5 (mortality of 90% or above (nearly complete death)); B: bulrush, herbicidal effect (evaluation scale 0-5) [29]: 5 (mortality of 90% or above (nearly complete death)); A: barnyardgrass, herbicidal effect (evaluation scale 0-5) [30]: 5 (mortality of 90% or above (nearly complete death)); a: transplanted rice, effect on crop (evaluation scale 0-5) [31]: 0 (mortality of less than 5% (almost ineffective))
CCOC(=O)N(c1ccccc1CN1COC2(CCC2)CC1=O)S(=O)(=O)C(F)(F)F [II-63]	5 (mortality of 90% or above (nearly complete death))	4 (mortality of at least 70% and less than 90%)	5 (mortality of 90% or above (nearly complete death))	4 (mortality of at least 70% and less than 90%)	4 (mortality of at least 70% and less than 90%)	5 (mortality of 90% or above (nearly complete death))	4 (mortality of at least 70% and less than 90%)	3 (mortality of at least 40% and less than 70%)	5 (mortality of 90% or above (nearly complete death))	5 (mortality of 90% or above (nearly complete death))	5 (mortality of 90% or above (nearly complete death))	4 (mortality of at least 70% and less than 90%)	5 (mortality of 90% or above (nearly complete death))	5 (mortality of 90% or above (nearly complete death))	5 (mortality of 90% or above (nearly complete death))	4 (mortality of at least 70% and less than 90%)	2 (mortality of at least 20% and less than 40%)	5 (mortality of 90% or above (nearly complete death))	3 (mortality of at least 40% and less than 70%)	4 (mortality of at least 70% and less than 90%)	I: velvetleaf, herbicidal effect [21]: 5 (mortality of 90% or above (nearly complete death)); H: Italian ryegrass, herbicidal effect [22]: 4 (mortality of at least 70% and less than 90%); L: common lambsquater, herbicidal effect [23]: 3 (mortality of at least 40% and less than 70%); E: giant foxtail, herbicidal effect [24]: 4 (mortality of at least 70% and less than 90%); N: common chickweed, herbicidal effect [25]: 4 (mortality of at least 70% and less than 90%); A: barnyardgrass, herbicidal effect [26]: 5 (mortality of 90% or above (nearly complete death)); M: posumbu knotweed, herbicidal effect [27]: 4 (mortality of at least 70% and less than 90%); C: ducksalad, herbicidal effect (evaluation scale 0-5) [28]: 5 (mortality of 90% or above (nearly complete death)); B: bulrush, herbicidal effect (evaluation scale 0-5) [29]: 5 (mortality of 90% or above (nearly complete death)); A: barnyardgrass, herbicidal effect (evaluation scale 0-5) [30]: 5 (mortality of 90% or above (nearly complete death)); a: transplanted rice, effect on crop (evaluation scale 0-5) [31]: 1 (mortality of at least 5% and less than 20%)
